Legend:
[1] = Plasma clearance in dog; format: ADME, organism-based, Canis lupus familiaris
in vivo [2] = conditions: Sprague-Dawley, rat, plasma, iv, 1 mg/kg
in vivo [3] = conditions: nude, mouse, plasma, iv, 1 mg/kg
Rattus norvegicus = test: Unbound plasma clearance in Sprague-Dawley rat at 1 mg/kg, iv; format: ADME, organism-based; design: dose 1 mg/kg, route intravenous; conditions: in vivo
[4] = Apparent permeability across apical to basolateral side in MDCK cells; format: ADME, cell-based, Canis lupus familiaris; conditions: dog
[5] = Oral bioavailability in Sprague-Dawley rat at 5 mg/kg; format: ADME, organism-based; conditions: in vivo
[6] = Oral bioavailability in Beagle dog at 2 mg/kg; format: ADME, organism-based, Canis lupus familiaris; conditions: in vivo
[7] = Plasma clearance in Beagle dog at 1 mg/kg, iv; format: ADME, organism-based, Canis lupus familiaris; design: dose 1 mg/kg, route intravenous
[8] = Oral bioavailability in nude mouse at 25 mg/kg; format: ADME, organism-based; conditions: in vivo

Q: With `CC(C)n1ncnc1-c1cc2c(s1)-c1ccc(C(N)=O)cc1OCC2` as the compound, how does the clearance [1] read?
A: 100 mL/min/kg

Q: For `CC(C)n1ncnc1-c1nc2c(s1)CCOc1cc(C3CN(CCO)C3)ccc1-2`, which clearance (in vivo [2]) is on record?
A: 128 mL/min/kg

Q: And the clearance (in vivo [3])?
A: 132 mL/min/kg

Q: With `CC(C)n1ncnc1-c1nc2c(s1)CCOc1cc(C3CN(C[C@H](O)CO)C3)ccc1-2` as the compound, how does the clearance (in vivo [2]) read?
A: 57 mL/min/kg

Q: And the clearance (in vivo [3])?
A: 165 mL/min/kg

Q: With `CC(C)n1ncnc1-c1nc2c(s1)CCOc1cc(C3CN(CC(C)(C)O)C3)ccc1-2` as the compound, how does the clearance (in vivo [2]) read?
A: 163 mL/min/kg

Q: What about the clearance (in vivo [3]) of the same compound?
A: 170 mL/min/kg

Q: With `CC(C)n1ncnc1-c1nc2c(s1)CCOc1cc(C3CN(C(=O)C(C)(C)N)C3)ccc1-2` as the compound, how does the CL free (Rattus norvegicus) read?
A: 1153 mL/min/kg

Q: And the clearance (in vivo [2])?
A: 60 mL/min/kg

Q: Which clearance (in vivo [2]) does the source give for `CC(C)n1ncnc1-c1nc2c(s1)CCOc1cc(C3CN(C(C)(C)C(N)=O)C3)ccc1-2` here?
A: 55 mL/min/kg

Q: And the clearance (in vivo [3])?
A: 104 mL/min/kg

Q: Which Papp A→B [4] does the source give for `CC(C)n1ncnc1-c1nc2c(s1)CCOc1cc(-c3cnn(CCO)c3)ccc1-2` here?
A: 16 ×10⁻⁶ cm/s

Q: And the bioavailability [5]?
A: 83%

Q: And the bioavailability [6]?
A: 22%

Q: And the clearance [7]?
A: 14 mL/min/kg

Q: What about the bioavailability [8] of the same compound?
A: 110%

Q: And the clearance (in vivo [2])?
A: 5.4 mL/min/kg

Q: And the clearance (in vivo [3])?
A: 9.5 mL/min/kg

Q: Which clearance (in vivo [2]) does the source give for `CC(C)n1ncnc1-c1nc2c(s1)CCOc1cc(-c3cnn(CC(C)(C)O)c3)ccc1-2` here?
A: 6.8 mL/min/kg

Q: And the clearance (in vivo [3])?
A: 3.1 mL/min/kg

Q: Which results are given for `CC(C)n1ncnc1-c1nc2c(s1)CCOc1cc(-c3cnn(CS(C)(=O)=O)c3)ccc1-2`?
A: clearance (in vivo [2]): 6.1 mL/min/kg; clearance (in vivo [3]): 3.2 mL/min/kg

Q: For `CC(C)n1ncnc1-c1nc2c(s1)CCOc1cc(-c3cnn(C(C)(C)C(N)=O)c3)ccc1-2`, which CL free (Rattus norvegicus) is on record?
A: 625 mL/min/kg

Q: And the clearance (in vivo [2])?
A: 10 mL/min/kg

Q: What about the clearance (in vivo [3]) of the same compound?
A: 13.4 mL/min/kg

Q: Which results are given for `Cc1nc(-c2nc3c(s2)CCOc2cc(-c4cnn(CCO)c4)ccc2-3)n(C(C)C)n1`?
A: clearance (in vivo [2]): 1.9 mL/min/kg; clearance (in vivo [3]): 2.2 mL/min/kg

Q: Which clearance (in vivo [2]) does the source give for `CC(C)n1nc(N)nc1-c1nc2c(s1)CCOc1cc(-c3cnn(CC(C)(C)O)c3)ccc1-2` here?
A: 55 mL/min/kg

Q: And the clearance (in vivo [3])?
A: 4 mL/min/kg

Q: With `CC(C)n1c(-c2nc3c(s2)CCOc2cc(-c4cnn(CC(C)(C)O)c4)ccc2-3)n[nH]c1=O` as the compound, how does the clearance (in vivo [2]) read?
A: 84 mL/min/kg

Q: And the clearance (in vivo [3])?
A: 22 mL/min/kg

From ChEMBL document CHEMBL2380305, “Discovery of thiazolobenzoxepin PI3-kinase inhibitors that spare the PI3-kinase β isoform” (Bioorg Med Chem Lett, 2013)
